Series [1] deals with Oryctolagus sp.
The subject of series [2] is Rattus norvegicus. The settings on record: for LD50 / LC50: acute.
Series [3] has as its system Mus musculus. As to conditions: acute; oral.
Series [4] concerns Cricetulus sp. As to conditions: duration: 5 days, oral, gavage, Hamster.
Series [5] relates to Canidae. The settings on record: oral, diet, M/F, Dog Other.
The test system of series [6] is Canidae. The settings on record: chronic; duration: 2 years; oral; diet; Dog Other; Small intestine: Increased weight + Stomach: Increased weight.
Series [7] relates to Homo sapiens. As to conditions: clinical, oral.
Series [8] relates to Rattus norvegicus. As to conditions: developmental; oral; gavage; Embryotoxic effects.
Series [9] deals with Canidae. As to conditions: subchronic, duration: 90 days, oral, M/F, Beagle, neurological.
The test system of series [10] is Rattus norvegicus. Briefly: LC100; higher = less toxic. The settings on record: acute; inhalation.
Series [11] concerns Rattus norvegicus. As to conditions: subchronic, oral, M/F.
Series [12] deals with Rattus norvegicus. The settings on record: subchronic; duration: 13 weeks; oral; gavage; Liver: Hepatotoxicity.
In series [13] the test system is Cricetulus sp. The settings on record: subchronic; duration: 13 weeks; inhalation; intermittent; Hamster; Nasal cavity: Olfactory degeneration.
Series [14] has as its system Rattus norvegicus. As to conditions: subchronic; duration: 13 weeks; oral; gavage; M/F; Fischer 344; Deaths + Absolute Organ Weight: Kidney increase, Liver increase + Relative Organ Weight: Kidney increase, Liver increase + Histopathology: ….
For series [15], the system named is Gallus sp. The settings on record: subchronic; duration: 90 days; oral; F; ataxia, delayed neurotoxicity and weight loss.
In series [16] the test system is Gallus sp. As to conditions: subchronic; duration: 3 months; oral; capsule; Nervous system: Ataxia + Nervous system: Delayed neurotoxicity + Whole body: Decreased weight.
Series [17] concerns Oryctolagus sp. Briefly: LD0; higher = less toxic. The settings on record: acute; dermal; New Zealand.
The subject of a further series is Cavia porcellus. As to conditions: acute, Guinea Pig.
The test system of series [18] is Mus musculus. The settings on record: subchronic; oral; M/F; kidney effects (renal tubular pathology, reduced kidney weight).
Series [19] concerns Mus musculus. As to conditions: subchronic; duration: 13 weeks; oral; gavage; M/F; CD1; Urinary.
Series [20] concerns Homo sapiens. The settings on record: clinical; oral; M; Restoration normal sexual desire, erection, ejaculation, and general well-being.
Series [21] deals with Rattus norvegicus. As to conditions: injection, subcutaneous.
Another series concerns Dog, Rat. As to conditions: subchronic; duration: 13 weeks; oral; diet; Kidney: Effects + Liver: Effects.
Series [22] relates to Homo sapiens. The settings on record: clinical; oral; Hematologic.
Series [23] has as its system Homo sapiens. As to conditions: clinical; oral; Blood: Increased prothrombin time.
The mark [24] stands for this setting: chronic, duration: 2 years, increased absolute and relative weight of stomach and small intestine.
Where [25] appears, read: subchronic, duration: 90 days, inhibition of brain cholinesterase.
[26] abbreviates: M, plasma cholinesterase inhibition.
Where [27] appears, read: short-term, duration: 28 days, dermal, occlusive, New Zealand.
Where [28] appears, read: subchronic, duration: 90 days, inhalation, Sprague-Dawley.
Where [29] appears, read: subchronic, duration: 13 weeks, Male reproductive toxicity and other effects (including decreased body weight gain), increased liver and kidney weights.
[30] abbreviates: duration: 90 days, diet, increased liver and kidney weight.

Data on 14 compounds can be found in EPA's ToxValDB 9.5.

Several values for one entry are separate records, joined by “and”; a condition that tells them apart may be missing. Equal entries are not always repeated. Structures can show the parent of a compound that is named as a salt. Bounds are passed on as bounds.

Usually NOAEL stands for the highest tested level that showed no adverse finding. Usually LD50 stands for the dose at which mortality reaches 50%. As a reminder, the LOAEL is the lowest dose or exposure tested at which an adverse effect was seen.

Consider `COC(=O)CCSCCC(=O)OC` [Dimethyl 3,3'-thiodipropionate], for which the no observed adverse effect level (NOAEL) was determined as 1000 mg/kg-day in the series with Oryctolagus sp. [1] (developmental, duration: 13 days, oral, gavage, Dutch-belted); 350 mg/kg-day with Rattus norvegicus [2] (reproduction developmental, duration: 13 weeks, oral, gavage, Sprague-Dawley); 1600 mg/kg-day with Rattus norvegicus [2] (reproduction developmental, duration: 10 days, oral, gavage, F, Wistar); 350 mg/kg-day in the series with Rattus norvegicus [2] (subchronic, duration: 13 weeks, oral, gavage, Sprague-Dawley); 1600 mg/kg-day with Cricetulus sp. [4] (developmental); 1600 mg/kg-day with Cricetulus sp. [4] (reproduction developmental, F). The results for the LD50 in the series with Rattus norvegicus [2] (oral) and in the series with Mus musculus [3] were greater than 2500 mg/kg and greater than 2000 mg/kg, respectively.
In the case of `O=C(O)[C@@H]1[C@H](C(=O)O)[C@H]2CC[C@@H]1O2` [Endothal], in the series on Canidae [5] (setting [24]), the LEL was 6 mg/kg-day and the NOEL is 2 mg/kg-day. Besides, the NOEL in the series with Canidae [6] was determined as 2 mg/kg-day.
Take `CCOP(=S)(OCC)SCSP(=S)(OCC)OCC` [Ethion]: the LEL in the series with Canidae [5] (setting [25]) was 0.71 mg/kg-day; in the series with Homo sapiens [7] (setting [26]), 0.075 mg/kg-day. The NOEL in the series on Canidae [5] (setting [25]) amounted to 0.06 mg/kg-day; in the series on Homo sapiens [7] (setting [26]), 0.05 mg/kg-day. Also, the NOAEL came to 0.2 mg/kg-day in the series on Rattus norvegicus [8], 0.06 mg/kg-day in the series with Canidae [9] and 0.06 mg/kg-day in the series with Canidae [9] (diet).
As to `CCOS(=O)(=O)OCC` [Ethyl sulfate (Et2SO4)], the LC100 with Rattus norvegicus [10] is 3150 mg/m3. The LD50 in the series with Oryctolagus sp. [1] (acute, dermal) came to 706 mg/kg; in the series on Rattus norvegicus [2] (injection, subcutaneous), 350 mg/kg; with Rattus norvegicus [2] (oral), 880 mg/kg. In the series on Rattus norvegicus [2] (inhalation), the LC50 was ≥ 1580 mg/m3 and ≤ 3150 mg/m3.
On to `O=Cc1ccco1` [Furfural], for which the LOAEL with Rattus norvegicus [11] (hepatocellular vacuolization) is 11 mg/kg-day; with Rattus norvegicus [12] it was 7.9 mg/kg-day. The compound also had a no observed adverse effect level (NOAEL) in the series on Cricetulus sp. [13] of 78.6 mg/m3. In the series with Rattus norvegicus [14], the NOEL is less than 11 mg/kg-day.
With `CCCCSP(SCCCC)SCCCC` [Merphos], in the series with Gallus sp. [15], the lowest observed adverse effect level (LOAEL) turned out to be 0.5 mg/kg-day and the NOEL is 0.1 mg/kg-day. Further, the LD50 with Rattus norvegicus [2] (oral, gavage, Crl) stood at 2480 mg/kg. In addition, the NOEL in the series with Gallus sp. [16] is 0.1 mg/kg-day.
With `CSSC` [Methyl disulfide], the LD0 with Oryctolagus sp. [17] was no less than 2000 mg/kg. Moreover, the results for the LOAEL with Oryctolagus sp. [1] (setting [27]) and in the series on Rattus norvegicus [2] (setting [28]) were 106 mg/kg-day and 193 mg/m3, respectively. Also, the no observed adverse effect level (NOAEL) with Oryctolagus sp. [1] (setting [27]) was 10.6 mg/kg-day; in the series with Rattus norvegicus [2] (developmental, duration: 10 days, inhalation, Crl:CD(SD) BR), 57.8 mg/m3; in the series on Rattus norvegicus [2] (reproduction developmental, duration: 10 days, inhalation, F, Crl:CD(SD) BR), less than 38.5 mg/m3; in the series on Rattus norvegicus [2] (setting [28]) it was 38.5 mg/m3. This compound also displayed an LC50 with Rattus norvegicus [2] (inhalation, Sprague-Dawley) of 3100 mg/m3. Besides, the LD50 with Rattus norvegicus [2] (oral, gavage, Sprague-Dawley) was ≥ 290 mg/kg and ≤ 500 mg/kg; in the series with Rattus norvegicus [2] (oral, gavage, Wistar), 190 mg/kg.
In turn, `CCCCCCCC/C=C\CCCCCCCC(=O)O` [Oleic acid] yielded a median lethal dose (LD50) with Cavia porcellus (dermal) greater than 3000 mg/kg.
`c1cc2ccc3cccc4ccc(c1)c2c34` [Pyrene]: in the series with Mus musculus [18], the LOAEL amounted to 125 mg/kg-day and the NOAEL is 75 mg/kg-day. In the series with Mus musculus [19], this compound yielded an NOAEL of 75 mg/kg-day.
With `C[C@]12CC[C@H]3[C@@H](CCC4=CC(=O)CC[C@@]43C)[C@@H]1CC[C@@H]2O` [Testosterone], the NOEL in the series on Homo sapiens [20] stood at 1.7 mg/kg-day; with Rattus norvegicus [21] (Hershberger, duration: 7 days, Sprague-Dawley, active + Androgenic + androgenic), 0.1 mg/kg-day. This compound had an LEL in the series with Rattus norvegicus [21] (uterotrophic, duration: 3 days, Active) of 0.2 mg/day.
With `O=C1OC(=O)C2CC=CCC12` (stereo not drawn) [Tetrahydrophthalic anhydride], the LD50 in the series on Cavia porcellus (oral) worked out at 3500 mg/kg; in the series on Mus musculus [3], 3300 mg/kg.
Regarding `Cc1cc(Cl)ccc1OCCCC(=O)O` [Thitrol], the LEL with Canidae [5] (setting [29]) and in the series on Rattus norvegicus [11] (setting [30]) was 40 mg/kg-day in each case. The NOEL in the series on Canidae [5] (setting [29]) was determined as 12 mg/kg-day; with Rattus norvegicus [11] (setting [30]), 12 mg/kg-day; in the series with Dog, Rat it was 12 mg/kg-day.
`O=[N+]([O-])OCC(CO[N+](=O)[O-])O[N+](=O)[O-]` [Trinitroglycerin] registered an LOAEL in the series on Homo sapiens [22] of 0.036 mg/kg-day.
Consider `CC(=O)CC(c1ccccc1)c1c(O)c2ccccc2oc1=O` (stereo not drawn) [Warfarin], for which the LOAEL turned out to be 0.029 mg/kg-day in the series on Homo sapiens [7] (M/F, increased prothrombin time) and 2 mg/day in the series with Homo sapiens [23].
